{"source": "patent US9340590B2", "about": "(priority 2011, dated 2016)", "molecular_target": "hNav1.3 (Homo sapiens, UniProt Q9NY46)", "sequence (Q9NY46 whole entry, looked up)": "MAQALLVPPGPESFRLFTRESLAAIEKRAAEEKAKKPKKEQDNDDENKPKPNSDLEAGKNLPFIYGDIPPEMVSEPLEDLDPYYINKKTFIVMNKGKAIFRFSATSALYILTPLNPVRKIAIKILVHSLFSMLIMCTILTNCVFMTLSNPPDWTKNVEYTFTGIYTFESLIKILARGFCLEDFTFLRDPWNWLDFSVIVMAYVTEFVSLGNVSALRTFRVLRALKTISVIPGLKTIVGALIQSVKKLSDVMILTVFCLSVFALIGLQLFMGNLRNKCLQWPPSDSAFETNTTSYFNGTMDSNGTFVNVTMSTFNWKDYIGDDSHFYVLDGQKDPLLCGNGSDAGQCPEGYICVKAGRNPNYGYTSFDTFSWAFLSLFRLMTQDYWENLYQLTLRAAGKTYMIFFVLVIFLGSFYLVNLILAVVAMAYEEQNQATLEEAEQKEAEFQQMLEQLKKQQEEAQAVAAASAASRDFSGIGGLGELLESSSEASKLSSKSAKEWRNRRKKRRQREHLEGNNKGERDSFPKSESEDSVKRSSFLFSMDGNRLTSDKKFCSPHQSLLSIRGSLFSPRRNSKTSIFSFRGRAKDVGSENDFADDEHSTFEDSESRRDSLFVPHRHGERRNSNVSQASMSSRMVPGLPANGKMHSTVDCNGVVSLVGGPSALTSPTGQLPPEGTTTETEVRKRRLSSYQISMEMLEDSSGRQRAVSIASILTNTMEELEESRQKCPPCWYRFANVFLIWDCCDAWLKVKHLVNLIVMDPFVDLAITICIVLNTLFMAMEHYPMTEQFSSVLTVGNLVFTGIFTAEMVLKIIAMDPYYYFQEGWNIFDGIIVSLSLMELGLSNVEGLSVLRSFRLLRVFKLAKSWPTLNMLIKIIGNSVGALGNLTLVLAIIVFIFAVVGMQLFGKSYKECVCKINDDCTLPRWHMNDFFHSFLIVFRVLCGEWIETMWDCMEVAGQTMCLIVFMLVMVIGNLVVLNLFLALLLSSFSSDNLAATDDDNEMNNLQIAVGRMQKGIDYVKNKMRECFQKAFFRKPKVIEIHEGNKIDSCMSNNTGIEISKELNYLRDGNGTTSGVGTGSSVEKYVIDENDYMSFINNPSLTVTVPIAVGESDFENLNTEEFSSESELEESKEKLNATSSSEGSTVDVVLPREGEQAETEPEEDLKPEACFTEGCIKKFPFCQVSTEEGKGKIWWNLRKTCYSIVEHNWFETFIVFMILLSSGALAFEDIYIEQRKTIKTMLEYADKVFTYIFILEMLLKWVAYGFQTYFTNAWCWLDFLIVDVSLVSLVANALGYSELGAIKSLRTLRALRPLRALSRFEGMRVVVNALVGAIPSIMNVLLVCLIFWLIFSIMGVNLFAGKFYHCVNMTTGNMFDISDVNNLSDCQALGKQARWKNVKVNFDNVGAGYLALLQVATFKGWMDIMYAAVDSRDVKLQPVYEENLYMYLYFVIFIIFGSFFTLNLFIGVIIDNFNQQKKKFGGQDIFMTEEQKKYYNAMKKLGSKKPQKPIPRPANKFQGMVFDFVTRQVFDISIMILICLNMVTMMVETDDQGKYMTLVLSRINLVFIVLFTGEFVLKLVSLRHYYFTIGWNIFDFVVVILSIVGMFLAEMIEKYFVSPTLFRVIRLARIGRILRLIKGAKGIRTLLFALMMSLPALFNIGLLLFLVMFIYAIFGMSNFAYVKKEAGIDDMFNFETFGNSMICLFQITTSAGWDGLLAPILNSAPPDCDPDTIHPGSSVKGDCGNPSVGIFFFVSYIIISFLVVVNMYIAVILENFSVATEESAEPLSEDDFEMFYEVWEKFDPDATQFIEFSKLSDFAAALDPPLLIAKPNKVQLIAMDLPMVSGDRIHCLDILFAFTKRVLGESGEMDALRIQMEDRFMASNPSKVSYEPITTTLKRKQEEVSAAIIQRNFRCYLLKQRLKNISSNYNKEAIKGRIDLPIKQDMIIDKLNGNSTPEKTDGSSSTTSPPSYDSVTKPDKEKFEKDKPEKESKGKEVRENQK", "test": "cell-based", "settings": "for IC50: IonWorks Quattro, read-out: IWQ Use Nav1.3", "key": {"[1]": {"settings": "use-dependent protocol, hNav1.3"}}, "note": "Read-outs that look alike come from different tables or passages of the source. Positions of bridges follow the written chain, without caps; N, C: chain ends. Residues, ends and D or L forms follow the SMILES beside them.", "data": [{"molecule": "CC[C@H](C)[C@@H]1NC(=O)[C@@H]2CSSC[C@@H]3NC(=O)[C@H](C(C)C)NC(=O)[C@H](CC(C)C)NC(=O)[C@H](CC(N)=O)NC(=O)[C@@H]4CCCN4C(=O)[C@H](CCCNC(=N)N)NC(=O)[C@H](CSSC[C@H](NC(=O)[C@@H](N)CC(=O)O)C(=O)N[C@@H](CC(C)C)C(=O)NCC(=O)N[C@@H](Cc4ccccc4)C(=O)N[C@@H](CCSC)C(=O)N[C@@H](CCCNC(=N)N)C(=O)N[C@@H](CCCCN)C(=O)N2)NC(=O)[C@H](CSSC[C@@H](C(=O)N[C@@H](CCCCN)C(=O)N[C@@H](Cc2ccc(O)cc2)C(=O)N[C@H](C(=O)N[C@@H](Cc2ccccc2)C(N)=O)C(C)C)NC(=O)[C@H](Cc2c[nH]c4ccccc24)NC(=O)[C@H](CC(=O)O)NC(=O)[C@H](Cc2cnc[nH]2)NC(=O)[C@H]([C@@H](C)O)NC(=O)[C@H](CCCNC(=N)N)NC(=O)[C@H](CO)NC3=O)NC(=O)[C@H](CCCCN)NC(=O)[C@H](CC(=O)O)NC(=O)[C@H](CC(N)=O)NC(=O)[C@H](CC(=O)O)NC(=O)[C@@H]2CCCN2C1=O", "note": "[SEQ ID NO: 750, [Asp28]GpTx-1] (H-DCLGFMRKCIPDNDKCCRPNLVCSRTHDWCKYVF-NH2; disulfide 2-17, 9-23, 16-30)", "values": [{"measurement": "IC50", "setting": "use-dependent block, hNav1.3", "result": 770, "unit": "nM"}]}, {"molecule": "CSCC[C@@H]1NC(=O)[C@H](Cc2ccccc2)NC(=O)CNC(=O)[C@H](CC(C)C)NC(=O)[C@@H](NC(=O)[C@@H](N)CC(=O)O)CSSC[C@@H]2NC(=O)[C@@H]3CSSC[C@@H](C(=O)N[C@@H](CCCCN)C(=O)N[C@@H](Cc4ccc(O)cc4)C(=O)N[C@H](C(=O)N[C@@H](Cc4ccccc4)C(N)=O)C(C)C)NC(=O)[C@H](Cc4c[nH]c5ccccc45)NC(=O)[C@H](CCCCN)NC(=O)[C@H](Cc4cnc[nH]4)NC(=O)[C@H]([C@@H](C)O)NC(=O)[C@H](CCCNC(=N)N)NC(=O)[C@H](CO)NC(=O)[C@H](CSSC[C@H](NC(=O)[C@H](CCCCN)NC(=O)[C@H](CCCNC(=N)N)NC1=O)C(=O)N[C@@H](CCSC)C(=O)N1CCC[C@H]1C(=O)N[C@@H](CC(=O)O)C(=O)N[C@@H](CC(N)=O)C(=O)N[C@@H](CC(=O)O)C(=O)N[C@@H](CCCCN)C(=O)N3)NC(=O)[C@H](C(C)C)NC(=O)[C@H](CC(C)C)NC(=O)[C@H](CC(N)=O)NC(=O)[C@@H]1CCCN1C(=O)[C@H](CCCNC(=N)N)NC2=O", "note": "[compound 307] (H-DCLGFMRKCMPDNDKCCRPNLVCSRTHKWCKYVF-NH2; disulfide 2-17, 9-23, 16-30)", "values": [{"measurement": "IC50", "setting": "Use", "result": 100, "unit": "nM"}]}, {"molecule": "CSCC[C@@H]1NC(=O)[C@H](Cc2ccccc2)NC(=O)CNC(=O)[C@H](CC(C)C)NC(=O)[C@@H](NC(=O)[C@@H](N)CC(=O)O)CSSC[C@@H]2NC(=O)[C@@H]3CSSC[C@@H](C(=O)N[C@@H](CCCCN)C(=O)N[C@@H](Cc4ccc(O)cc4)C(=O)N[C@H](C(=O)N[C@@H](Cc4ccccc4)C(N)=O)C(C)C)NC(=O)[C@H](Cc4c[nH]c5ccccc45)NC(=O)[C@H](CCCCN)NC(=O)[C@H](Cc4cnc[nH]4)NC(=O)[C@H]([C@@H](C)O)NC(=O)[C@H](CCCNC(=N)N)NC(=O)[C@H](CO)NC(=O)[C@H](CSSC[C@H](NC(=O)[C@H](CCCCN)NC(=O)[C@H](CCCNC(=N)N)NC1=O)C(=O)N[C@@H]([C@@H](C)O)C(=O)N1CCC[C@H]1C(=O)N[C@@H](CC(=O)O)C(=O)N[C@@H](CC(N)=O)C(=O)N[C@@H](CC(=O)O)C(=O)N[C@@H](CCCCN)C(=O)N3)NC(=O)[C@H](C(C)C)NC(=O)[C@H](CC(C)C)NC(=O)[C@H](CC(N)=O)NC(=O)[C@@H]1CCCN1C(=O)[C@H](CCCNC(=N)N)NC2=O", "note": "[compound 309] (H-DCLGFMRKCTPDNDKCCRPNLVCSRTHKWCKYVF-NH2; disulfide 2-17, 9-23, 16-30)", "values": [{"measurement": "IC50", "setting": "Use", "result": 60, "unit": "nM"}]}, {"molecule": "CC[C@H](C)[C@@H]1NC(=O)[C@@H]2CSSC[C@@H]3NC(=O)[C@H](C(C)C)NC(=O)[C@H](CC(C)C)NC(=O)[C@H](CC(N)=O)NC(=O)[C@@H]4CCCN4C(=O)[C@H](CCCNC(=N)N)NC(=O)[C@H](CSSC[C@H](NC(=O)[C@@H](N)CC(=O)O)C(=O)N[C@@H](CC(C)C)C(=O)NCC(=O)N[C@@H](Cc4ccccc4)C(=O)N[C@@H](Cc4ccccc4)C(=O)N[C@@H](CCCNC(=N)N)C(=O)N[C@@H](CCCCN)C(=O)N2)NC(=O)[C@H](CSSC[C@@H](C(=O)N[C@@H](CCCCN)C(=O)N[C@@H](Cc2cn(CCOCCOCCOCCOCCOCCOCCOCCOCCOCCOCCN)nn2)C(=O)N[C@H](C(=O)N[C@@H](Cc2cccc4ccccc24)C(N)=O)C(C)C)NC(=O)[C@H](Cc2c[nH]c4ccccc24)NC(=O)[C@H](CCCCN)NC(=O)[C@H](Cc2c[nH]cn2)NC(=O)[C@H]([C@@H](C)O)NC(=O)[C@H](CCCNC(=N)N)NC(=O)[C@H](CO)NC3=O)NC(=O)[C@H](CCCCN)NC(=O)[C@H](CC(=O)O)NC(=O)[C@H](CC(N)=O)NC(=O)[C@H](CC(=O)O)NC(=O)[C@@H]2CCCN2C1=O", "note": "[compound 559]", "values": [{"measurement": "Nav1.7/Nav1.3", "setting": "ratio of IWQ Use IC50 values", "result": 2.3}]}, {"molecule": "CC[C@H](C)[C@@H]1NC(=O)[C@@H]2CSSC[C@@H]3NC(=O)[C@H](C(C)C)NC(=O)[C@H](CC(C)C)NC(=O)[C@H](CC(N)=O)NC(=O)[C@@H]4CCCN4C(=O)[C@H](CCCNC(=N)N)NC(=O)[C@H](CSSC[C@H](NC(=O)[C@@H](N)CC(=O)O)C(=O)N[C@@H](CC(C)C)C(=O)NCC(=O)N[C@@H](Cc4ccccc4)C(=O)N[C@@H](Cc4ccccc4)C(=O)N[C@@H](CCCNC(=N)N)C(=O)N[C@@H](CCCCN)C(=O)N2)NC(=O)[C@H](CSSC[C@@H](C(=O)N[C@@H](CCCCN)C(=O)N[C@@H](Cc2ccc(O)cc2)C(=O)N[C@H](C(=O)N[C@@H](Cc2ccccc2)C(=O)N[C@@H](Cc2cn(CCOCCOCCOCCOCCOCCOCCOCCOCCOCCOCCN)nn2)C(N)=O)C(C)C)NC(=O)[C@H](Cc2c[nH]c4ccccc24)NC(=O)[C@H](CCCCN)NC(=O)[C@H](Cc2c[nH]cn2)NC(=O)[C@H](CC(C)C)NC(=O)[C@H](CCCNC(=N)N)NC(=O)[C@H](CO)NC3=O)NC(=O)[C@H](CCCCN)NC(=O)[C@H](CC(=O)O)NC(=O)[C@H](CC(N)=O)NC(=O)[C@H](CC(=O)O)NC(=O)[C@@H]2CCCN2C1=O", "note": "[compound 588]", "values": [{"measurement": "Nav1.7/Nav1.3", "setting": "ratio of IWQ Use IC50 values", "result": 3.3}]}, {"molecule": "CC[C@H](C)[C@@H]1NC(=O)[C@@H]2CSSC[C@@H]3NC(=O)[C@H](C(C)C)NC(=O)[C@H](CC(C)C)NC(=O)[C@H](CC(N)=O)NC(=O)[C@@H]4CCCN4C(=O)[C@H](CCCNC(=N)N)NC(=O)[C@H](CSSC[C@H](NC(=O)[C@@H](N)CC(=O)O)C(=O)N[C@@H](CC(C)C)C(=O)NCC(=O)N[C@H](C)C(=O)N[C@@H](CC(C)C)C(=O)N[C@@H](CCCNC(=N)N)C(=O)N[C@@H](CCCCN)C(=O)N2)NC(=O)[C@H](CSSC[C@@H](C(=O)N[C@@H](CCCCN)C(=O)N[C@@H](Cc2ccc(O)cc2)C(=O)N[C@H](C(=O)N[C@@H](Cc2ccccc2)C(N)=O)C(C)C)NC(=O)[C@H](Cc2c[nH]c4ccccc24)NC(=O)[C@H](CCCCN)NC(=O)[C@H](Cc2c[nH]cn2)NC(=O)[C@H]([C@@H](C)O)NC(=O)[C@H](CCCNC(=N)N)NC(=O)[C@H](CO)NC3=O)NC(=O)[C@H](CCCCN)NC(=O)[C@H](CC(=O)O)NC(=O)[C@H](CC(N)=O)NC(=O)[C@H](CC(=O)O)NC(=O)[C@@H]2CCCN2C1=O", "note": "[compound 633]", "values": [{"measurement": "IC50", "setting": "[1]", "result": 11500, "unit": "nM"}]}, {"molecule": "CC[C@H](C)[C@@H]1NC(=O)[C@@H]2CSSC[C@@H]3NC(=O)[C@H](C(C)C)NC(=O)[C@H](CC(C)C)NC(=O)[C@H](CC(N)=O)NC(=O)[C@@H]4CCCN4C(=O)[C@H](CCCNC(=N)N)NC(=O)[C@H](CSSC[C@H](NC(=O)[C@@H](N)CC(=O)O)C(=O)N[C@@H](CC(C)C)C(=O)NCC(=O)N[C@@H](Cc4ccc(OC)c(OC)c4)C(=O)N[C@@H](CCSC)C(=O)N[C@@H](CCCNC(=N)N)C(=O)N[C@@H](CCCCN)C(=O)N2)NC(=O)[C@H](CSSC[C@@H](C(=O)N[C@@H](CCCCN)C(=O)N[C@@H](Cc2ccc(O)cc2)C(=O)N[C@H](C(=O)N[C@@H](Cc2ccccc2)C(N)=O)C(C)C)NC(=O)[C@H](Cc2c[nH]c4ccccc24)NC(=O)[C@H](CCCCN)NC(=O)[C@H](Cc2c[nH]cn2)NC(=O)[C@H]([C@@H](C)O)NC(=O)[C@H](CCCNC(=N)N)NC(=O)[C@H](CO)NC3=O)NC(=O)[C@H](CCCCN)NC(=O)[C@H](CC(=O)O)NC(=O)[C@H](CC(N)=O)NC(=O)[C@H](CC(=O)O)NC(=O)[C@@H]2CCCN2C1=O", "note": "[compound 652]", "values": [{"measurement": "Nav1.7/Nav1.3", "setting": "ratio of IWQ Use values, Nav1.7 over Nav1.3", "result": 0.8}]}, {"molecule": "CC[C@H](C)[C@@H]1NC(=O)[C@@H]2CSSC[C@@H]3NC(=O)[C@H](C(C)C)NC(=O)[C@H](CC(C)C)NC(=O)[C@H](CC(N)=O)NC(=O)[C@@H]4CCCN4C(=O)[C@H](CCCNC(=N)N)NC(=O)[C@H](CSSC[C@H](NC(=O)[C@@H](N)CC(=O)O)C(=O)N[C@@H](CC(C)C)C(=O)NCC(=O)N[C@@H](C)C(=O)N[C@@H](CC(C)C)C(=O)N[C@@H](CCCNC(=N)N)C(=O)N[C@@H](CCCCN)C(=O)N2)NC(=O)[C@H](CSSC[C@@H](C(=O)N[C@@H](CCCCN)C(=O)N[C@@H](Cc2ccc(O)cc2)C(=O)N[C@H](C(=O)N[C@@H](Cc2ccccc2)C(N)=O)C(C)C)NC(=O)[C@H](Cc2c[nH]c4ccccc24)NC(=O)[C@H](CCCCN)NC(=O)[C@H](Cc2cnc[nH]2)NC(=O)[C@H]([C@@H](C)O)NC(=O)[C@H](CCCNC(=N)N)NC(=O)[C@H](CO)NC3=O)NC(=O)[C@H](CCCCN)NC(=O)[C@H](CC(=O)O)NC(=O)[C@H](CC(N)=O)NC(=O)[C@H](CC(=O)O)NC(=O)[C@@H]2CCCN2C1=O", "note": "[compound 696]", "values": [{"measurement": "IC50", "setting": "[1]", "result": 750, "unit": "nM"}]}]}
